Source: ChEMBL document CHEMBL4483862, “Open-source discovery of chemical leads for next-generation chemoprotective antimalarials” (2018)

Tested on: Plasmodium berghei
Assay: Luciferase/luciferin-expressing antifolate-resistant parasites were used to infect a culture of HepG2 cells that were pre-incubated with compounds. Infected hepatocytes emit light due to the luciferase reaction. Assay results are presented as the percent inhibition of light emission compared to control. […]
Assay type: functional
Details: sporozoite; for IC90: read-out: LUCIFERASE INFECTION ASSAY - IC90
[1] = read-out: LUCIFERASE INFECTION ASSAY - IC50

| SMILES | IC90 [µM] | IC50 [1] [µM] | other results |
| --- | --- | --- | --- |
| COc1ccccc1NS(=O)(=O)c1ccc(NNC(=S)Nc2cc(C)cc(C)c2)c([N+](=O)[O-])c1 | > 10 |  | IC50 (FFLUC_HILL_SLOPE 0.289, FFLUC_R_SQUARED 0.0194, HEPG2TOX_HILL_SLOPE 0.191, HEPG2TOX_R_SQUARED 0.347, PBLUC_HILL_SLOPE 3.05, PBLUC_R_SQUARED 0.49, read-out: LUCIFERASE INFECTION ASSAY - IC50): 5.73 µM |
| COc1ccccc1NC(=O)c1cc2ccccc2c(CN2CCN(c3ccccc3)CC2)c1O | > 10 | > 10 |  |
| O=C(CSc1ncc(C(F)(F)F)cc1C(F)(F)F)Nc1cc(Cl)cc(Cl)c1 | > 7.35 |  | IC50 (HEPG2TOX_HILL_SLOPE 12.1, HEPG2TOX_R_SQUARED 0.84, PBLUC_HILL_SLOPE 0.731, PBLUC_R_SQUARED 0.558, read-out: LUCIFERASE INFECTION ASSAY - IC50): 1.53 µM |
| CN(C)CCNS(=O)(=O)c1ccc(Cl)c([N+](=O)[O-])c1 | > 10 | > 10 |  |
| O=C(c1ccccc1)c1cc(-c2nc3ccccc3[nH]2)c(-c2ccccc2)n2c1nc1ccccc12 | > 10 |  | IC50 (FFLUC_HILL_SLOPE 3.37, FFLUC_R_SQUARED 0.587, PBLUC_HILL_SLOPE 3.5, PBLUC_R_SQUARED 0.455, read-out: LUCIFERASE INFECTION ASSAY - IC50): 6.85 µM |
| Cc1c(Sc2ccccc2[N+](=O)[O-])c2ccccn2c1C(=O)c1ccc(Br)cc1 | > 10 |  | IC50 (FFLUC_HILL_SLOPE 12.7, FFLUC_R_SQUARED 0.226, PBLUC_HILL_SLOPE 11.1, PBLUC_R_SQUARED 0.312, read-out: LUCIFERASE INFECTION ASSAY - IC50): 9.73 µM |
| COc1ccc(CNc2nc(C)nc3scc(-c4ccccc4)c23)cc1 | 6.87 |  | IC50 (FFLUC_HILL_SLOPE 0.195, FFLUC_R_SQUARED 0.119, HEPG2TOX_HILL_SLOPE 2.5, HEPG2TOX_R_SQUARED 0.976, PBLUC_HILL_SLOPE 4.55, PBLUC_R_SQUARED 0.142, read-out: LUCIFERASE INFECTION ASSAY - IC50): 4.24 µM |
| COc1ccc(NC(=O)c2cccc(C3(CNCc4ccc(F)c(F)c4)CC3)c2)cn1 | > 10 |  | IC50 (PBLUC_HILL_SLOPE 17.1, PBLUC_R_SQUARED 0.0793, read-out: LUCIFERASE INFECTION ASSAY - IC50): 9.92 µM |
| CCN(Cc1ccccc1)C(=O)c1cc(-c2ccccc2)nc2c1cnn2CC | > 10 | > 10 |  |
| COc1ccccc1/C=C(\C#N)c1ccc(C)cc1 | > 13.2 |  | IC50 (PBLUC_HILL_SLOPE 1.71, PBLUC_R_SQUARED 0.0423, read-out: LUCIFERASE INFECTION ASSAY - IC50): 10.6 µM |
| Cc1c(-c2ccccc2)sc(N)c1C#N | > 15.4 |  | IC50 (HEPG2TOX_HILL_SLOPE 1.71, HEPG2TOX_R_SQUARED 0.831, PBLUC_HILL_SLOPE 15.7, PBLUC_R_SQUARED 0.066, read-out: LUCIFERASE INFECTION ASSAY - IC50): 14.9 µM |
| CC(C)n1ncc2cc(C(=O)Nc3cccc4c3CCCC4)cnc21 | 8.92 |  | IC50 (HEPG2TOX_HILL_SLOPE 1.91, HEPG2TOX_R_SQUARED 0.864, PBLUC_HILL_SLOPE 1.61, PBLUC_R_SQUARED 0.644, read-out: LUCIFERASE INFECTION ASSAY - IC50): 2.28 µM |
| O=C(/C=C/c1csc(-c2ccc(Cl)cc2)n1)c1cccc(O)c1 | 4.93 |  | IC50 (PBLUC_HILL_SLOPE 11.6, PBLUC_R_SQUARED 0.644, read-out: LUCIFERASE INFECTION ASSAY - IC50): 4.08 µM |
| Cc1cc(-c2cc(C(=O)Nc3nnc(C(F)(F)F)[nH]3)c3cnn(C(C)C)c3n2)c(C)s1 | > 10 |  | IC50 (HEPG2TOX_HILL_SLOPE 1.32, HEPG2TOX_R_SQUARED 0.884, PBLUC_HILL_SLOPE 1.68, PBLUC_R_SQUARED 0.6, read-out: LUCIFERASE INFECTION ASSAY - IC50): 3.79 µM |
| Cc1cc(=O)n2nc(-c3ccc(C(C)(C)C)cc3)cc2[nH]1 | 2.42 |  | IC50 (HEPG2TOX_HILL_SLOPE 9.72, HEPG2TOX_R_SQUARED 0.89, PBLUC_HILL_SLOPE 2.59, PBLUC_R_SQUARED 0.666, read-out: LUCIFERASE INFECTION ASSAY - IC50): 1.04 µM |
| CCCCNC(=O)c1c(NC(=O)c2cccc(C(F)(F)F)c2)nc2ccc(C)cn12 | 1 |  | IC50 (FFLUC_HILL_SLOPE 2.04, FFLUC_R_SQUARED 0.518, HEPG2TOX_HILL_SLOPE 1.13, HEPG2TOX_R_SQUARED 0.759, PBLUC_HILL_SLOPE 2.77, PBLUC_R_SQUARED 0.788, read-out: LUCIFERASE INFECTION ASSAY - IC50): 0.453 µM |
| CCCn1c(NC(=O)c2ccc(CS(=O)(=O)c3ccccc3)o2)nc2ccccc21 | 4.08 |  | IC50 (HEPG2TOX_HILL_SLOPE 2.08, HEPG2TOX_R_SQUARED 0.973, PBLUC_HILL_SLOPE 1.97, PBLUC_R_SQUARED 0.429, read-out: LUCIFERASE INFECTION ASSAY - IC50): 1.34 µM |
| COCOc1ccc(-c2cc(-c3ccc(C(N)=O)cc3)cnc2N)cc1 | 3.43 |  | IC50 (PBLUC_HILL_SLOPE 15.5, PBLUC_R_SQUARED 0.616, read-out: LUCIFERASE INFECTION ASSAY - IC50): 2.98 µM |
| CC(C)(C)CC(=O)Nc1ccc(-c2nc3ccccc3[nH]2)cc1 | 6 |  | IC50 (HEPG2TOX_HILL_SLOPE 7.93, HEPG2TOX_R_SQUARED 0.604, PBLUC_HILL_SLOPE 0.372, PBLUC_R_SQUARED 0.913, read-out: LUCIFERASE INFECTION ASSAY - IC50): 0.0164 µM |
| CC(=O)N1CCN(S(=O)(=O)c2cccc(C(=O)OCC(=O)c3ccc4c(c3)-c3ccccc3C4)c2)CC1 | > 10 | > 10 |  |

| SMILES | IC90 [µM] | IC50 [1] [µM] | other results |
| --- | --- | --- | --- |
| S=C(Nc1ccc(Oc2ccccc2)cc1)Nc1cccc2cnccc12 | > 10 |  | IC50 (PBLUC_HILL_SLOPE 1.05, PBLUC_R_SQUARED 0.612, read-out: LUCIFERASE INFECTION ASSAY - IC50): 4.86 µM |
| Cc1nc(N2CCN(C(=O)C(C)C)CC2)c2c3c(sc2n1)CC(C)CC3 (stereo not given) | > 10 |  | IC50 (PBLUC_HILL_SLOPE 12.1, PBLUC_R_SQUARED 0.479, read-out: LUCIFERASE INFECTION ASSAY - IC50): 9.05 µM |
| COc1ccc(-c2nc(NC(=O)c3cnc(C)cn3)sc2C)cc1 | > 10 | > 10 |  |
| CCc1ccc(C(=O)C(C)Sc2ccc(S(=O)(=O)N3CCOCC3)cn2)cc1 (stereo not given) | > 10 | > 10 |  |
| CC(C)(C)C(=O)Nc1ccc(-c2nc3ncccc3o2)c(Cl)c1 | 4.94 |  | IC50 (FFLUC_HILL_SLOPE 2.53, FFLUC_R_SQUARED 0.8, PBLUC_HILL_SLOPE 0.961, PBLUC_R_SQUARED 0.809, read-out: LUCIFERASE INFECTION ASSAY - IC50): 0.502 µM |
| O=C(NCc1ccc(-c2cccs2)s1)c1ccc([N+](=O)[O-])o1 | > 9.87 |  | IC50 (HEPG2TOX_HILL_SLOPE 1.96, HEPG2TOX_R_SQUARED 0.945, PBLUC_HILL_SLOPE 1.03, PBLUC_R_SQUARED 0.326, read-out: LUCIFERASE INFECTION ASSAY - IC50): > 9.87 µM |
| CC(NC(=O)CN1CCCc2c(F)cc(F)cc21)c1ccco1 (stereo not given) | > 10 | > 10 |  |
| CC(CCc1ccccc1)NC(=O)CN1CCN(C/C=C/c2ccccc2)CC1 (stereo not given) | > 10 | > 10 |  |
| Cc1c(/N=c2\scc(-c3cc4ccccc4o3)n2/N=C/c2ccsc2)c(=O)n(-c2ccccc2)n1C | 4.03 |  | IC50 (PBLUC_HILL_SLOPE 16.9, PBLUC_R_SQUARED 0.235, read-out: LUCIFERASE INFECTION ASSAY - IC50): 3.54 µM |
| CSc1ccc(-c2cn3c(-c4cccc(CO)c4)cnc3cn2)cc1 | > 9.5 | > 9.5 |  |
| Cc1cc(/C=C2\SC(NC3CCCCC3)=NC2=O)c(C)n1-c1ccc(Cl)c(C(F)(F)F)c1 | 9.71 |  | IC50 (FFLUC_HILL_SLOPE 17.5, FFLUC_R_SQUARED 0.757, PBLUC_HILL_SLOPE 2.43, PBLUC_R_SQUARED 0.441, read-out: LUCIFERASE INFECTION ASSAY - IC50): 3.93 µM |
| Cc1nnnn1/C(=C\c1ccccc1)C(=O)N(Cc1cccs1)c1ccc2c(c1)OCCO2 | > 10 | > 10 |  |
| c1cc(NCCN2CCOCC2)ncc1-c1cn2c(-c3ccc4c(c3)OCO4)cnc2cn1 | > 7.42 | > 7.42 |  |
| Cc1cc(=O)nc(N/N=C/c2cc(C)n(-c3ccc(C)c(C)c3)c2C)[nH]1 | > 10 |  | IC50 (PBLUC_HILL_SLOPE 2.67, PBLUC_R_SQUARED 0.2, read-out: LUCIFERASE INFECTION ASSAY - IC50): 9.4 µM |
| Cc1nc(NC(=O)c2cn3ccccc3n2)sc1Cc1ccc2c(c1)OCO2 | 3.5 |  | IC50 (PBLUC_HILL_SLOPE 53.8, PBLUC_R_SQUARED 0.294, read-out: LUCIFERASE INFECTION ASSAY - IC50): 3.36 µM |
| Clc1ccc(/N=C/c2c(Sc3ccc(Cl)cc3)nc3sccn23)cc1 | 5.29 |  | IC50 (FFLUC_HILL_SLOPE 12.3, FFLUC_R_SQUARED 0.518, HEPG2TOX_HILL_SLOPE 2.77, HEPG2TOX_R_SQUARED 0.964, PBLUC_HILL_SLOPE 5.31, PBLUC_R_SQUARED 0.509, read-out: LUCIFERASE INFECTION ASSAY - IC50): 3.5 µM |
| CSc1nnc(-c2ccc(C(C)(C)C)cc2)n1C | > 12.6 | > 12.6 |  |
| CCN1C(=O)N(CCC(C)C)C2(CCN(Cc3ccc4c(c3)Cc3ccccc3-4)CC2)C1=O | > 7.41 |  | IC50 (HEPG2TOX_HILL_SLOPE 8.09, HEPG2TOX_R_SQUARED 0.945, PBLUC_HILL_SLOPE 9.13, PBLUC_R_SQUARED 0.509, read-out: LUCIFERASE INFECTION ASSAY - IC50): 5.93 µM |
| CC(C)c1nc(NCCCN2CCOCC2)c(C#N)c2c1CCCC2 | > 9.64 | > 9.64 |  |
| CCOc1cc(/C=C/C(=O)c2nc3ccccc3s2)cc(Cl)c1OCC(=O)N(C)C | 4.79 |  | IC50 (HEPG2TOX_HILL_SLOPE 10.9, HEPG2TOX_R_SQUARED 0.987, PBLUC_HILL_SLOPE 8.99, 3.54, PBLUC_R_SQUARED 0.449, 0.614, read-out: LUCIFERASE INFECTION ASSAY - IC50): 4.84 µM |
